The record followed here is US20250367170A1, “TOPICAL ANGIOTENSIN II RECEPTOR BLOCKERS (ARBS) FOR TREATING EYE CONDITIONS” (The Cleveland Clinic Foundation, priority 2022, published 2025).

Assay [1] deals with rabbit corneas after -9D PRK. Put plainly: Slit lamp central opacity (ImageJ) one month after -9D PRK. The following applies: topical 0.2 mg/ml six times a day, vehicle 93±6. It is filed as in vivo, New Zealand white rabbits. On the procedure:
Animal procedures were approved by the Institutional Animal Care and Use Committee at the Cleveland Clinic Foundation and animals were treated in accordance with the tenets of the Association for Research in Vision and Ophthalmology Statement for the Use of Animals in Ophthalmic and Vision Research. Twelve female 12- to 15-week-old New Zealand white rabbits weighing 2.5 to 3 kg each were included. Starting 24 hours prior to surgery and continuing 5 days after PRK, all rabbits received 60 mL children's liquid acetaminophen (Johnson & Johnson, Ft. Washington, PA, USA) per 1 L of drinking water. One eye of each rabbit was randomly selected to have −9.0 D (on myopia scale) PRK and received 2 drops of topical 1% proparacaine hydrochloride (Alcon, Fort Worth, TX, USA) prior to the surgery. […]
At 1 month after PRK and treatment, each rabbit was placed under ketamine-xylazine general anesthesia and the eyes were dilated with two drops of 1% tropicamide (Akorn Co., Lake Forest, IL, USA) for 30 minutes. […] For each study cornea, the mean opacity in pixels in the central 3.5 mm of the PRK ablated zone was determined by using ImageJ 1.53a analysis software (National Institutes of Health, Bethesda, MD, USA).

Assay [2] relates to collagen type IV. Put plainly: IHC collagen type IV intensity in posterior stroma (ImageJ) after Descemetorhexis. The format is in vivo, New Zealand White rabbits. The following applies: one month. The protocol: (§1) Duplex immunohistochemistry (IHC) was performed after masking of slides by a researcher not involved in the analysis using previously described methods (de Oliveira et al., 2021) using primary antibodies (Table 2) confirmed by western blotting and IHC to recognize rabbit antigens or isotypic control antibodies (ThermoFisher Scientific, Waltham, MA), and secondary fluorescent tagged antibodies (Table 3).
The AB769 (Millipore, Temecula CA) collagen type IV antibody used in this study was generated against purified human and bovine collagen type IV, affinity purified with human and bovine collagen type IV crosslinked to agarose and cross-absorbed by the manufacturer with human and bovine collagens type I, II, III, V and VI to eliminate cross-reactivity. This antibody was shown previously to bind rabbit collagen IV in IHC (Sampaio et al., in press). […]
Collagen type IV intensity in immunohistochemistry images was quantitated in 0.75 W×0.5H rectangles of posterior stroma tangent to the posterior corneal surface using ImageJ on 7.62 cm wide×5.69 cm height and 300 DPI images generated using standardized microscopic illumination settings applied to all sections. The quantitation rectangles were positioned such that the posterior side of the rectangle was tangent to the posterior corneal surface just anterior to Descemet's membrane, if one was present, in the analysed specimens. […]

The next assay concerns TGF beta-1. The assay can be described thus: IHC TGF beta-1 in posterior stroma after Descemetorhexis. It is filed as in vivo, New Zealand White rabbits. The following applies: topical and/or oral losartan. The protocol:
as §1
The AB769 (Millipore, Temecula CA) collagen type IV antibody used in this study was generated against purified human and bovine collagen type IV, affinity purified with human and bovine collagen type IV crosslinked to agarose and cross-absorbed by the manufacturer with human and bovine collagens type I, II, III, V and VI to eliminate cross-reactivity. This antibody was shown previously to bind rabbit collagen IV in IHC (Sampaio et al., in press). The keratocan antibody was raised against peptide H2N-[…]-OH (SEQ ID NO:1).

Assay [3] deals with central corneal neovascularization (CNV). Put plainly: Corneal angiography for central corneal neovascularization after alkali burn. It is filed as in vivo, New Zealand White rabbits. The following applies: topical six times per day, one month, all four vehicle corneas positive. On the procedure: Alkali injuries were produced in one eye of rabbits with previously published methods^10 using 1N sodium hydroxide (Sigma, St. Louis, MO) in balanced salt solution (BSS, 0.64% sodium chloride, 0.075% potassium chloride, 0.048% calcium chloride dihydrate, 0.03% magnesium chloride hexahydrate, 0.39% sodium acetate trihydrate, 0.17% sodium citrate dihydrate, pH 7.5, Alcon, Ft. Worth, TX) and a 5 mm diameter circular Whatman No. 1 filter paper (Cat #1001-6508, Fisher Scientific) wetted with 100 μl of 1N NaOH solution. Following the alkali burn injury, the cornea was irrigated profusely with BSS. Each injured cornea also received one drop of ciprofloxacin (Alcon, Ft. Worth, TX, USA) ten minutes after surgery and four times a day for one week and at least 15 minutes apart from the study medications.
Worth TX), at least 5 minutes apart, or 4) 50 μl of BSS.
All corneas had fluorescent angiography at the peak of dye passage in the cornea immediately after injection of 1.5 ml of 10% sodium fluorescein (McKesson, Irvine, TX) in the central ear vein with the slit lamp system and digital camera system using a “barrier filter” that only transmitted 520-530 nm, the peak of fluorescein emission, with broad illumination of the cornea, as previously described.^11

Assay [4] concerns collagen type IV. Put plainly: IHC collagen type IV intensity in anterior and posterior stroma after alkali burn. It is filed as in vivo, New Zealand White rabbits. The following applies: one month. The protocol: Multiplex immunohistochemistry (IHC) was performed using previously described methods^8 and primary antibodies (Table 7) confirmed by western blotting and IHC to recognize rabbit antigens or isotypic control antibodies (Thermo Fisher Scientific, Waltham, MA), and secondary fluorescent tagged antibodies (Table 7). The collagen type IV antibody (Cat. #AB769, Millipore, Temecula CA) was raised against purified human and bovine collagen type IV that had been affinity purified with human and bovine collagen type IV crosslinked to agarose and cross-absorbed by the manufacturer with human and bovine collagens type I, II, III, V and VI to eliminate cross-reactivity. This collagen type IV antibody was shown previously to bind rabbit collagen IV in IHC,^8,9 and recognizes the alpha-1/alpha-2 chains but not the alpha-3 to alpha-6 chains. The keratocan antibody is raised against peptide […]-OH (SEQ ID NO:1). This marker was used to identify keratocytes in situ. […] All corneas in each group had IHC for collagen type IV. Images from each cornea were converted to uniform 300 DPI, 875×568 pixel, files. […] The staining intensity within each box was determined with the analyze histogram function and the mean of three boxes was the intensity value in the anterior or posterior stroma for that cornea.

Assay [5] relates to collagen type IV. Put plainly: IHC stromal collagen type IV pixels (ImageJ) one month after -9D PRK. The format is in vivo, New Zealand white rabbits.
Method: Rabbits were euthanized while under ketamine-xylazine general anesthesia with 100 mg/kg Beuthanasia (Shering-Plough, Kenilworth, NJ, USA) by intravenous injection followed by bilateral pneumothorax. The corneo-scleral rims were removed with sharp Westcott scissors (Fairfield, CT, USA) and 0.12 forceps (Storz, St Louis, MO, USA). The corneo-scleral rim was then centered in a 24-mm×24-mm×5-mm mold (Fisher Scientific, Pittsburgh, PA, USA) that was filled with optimal cutting temperature (OCT) compound (Sakura Finetek, Torrance, CA, USA) and quick frozen on dry ice. Blocks were stored at −80° C. until sectioning. Blocks were bisected at the center of the cornea and 10-pm-thick transverse sections were cut from the central cornea with a cryostat (HM 505M; Micron 5 GmbH, Walldorf, Germany). Three sections from each cornea were placed on each 25-mm×75-mm×1-mm Superfrost Plus microscope slide (Fisher Scientific). Slides with sections were maintained at −20° C. prior to immunohistochemistry (IHC).
All images were converted to 300 DPI 900 pixel width×672 pixel height images with Photoshop 22.1.1 (Adobe, San Jose, CA). The mean pixels of stromal α-SMA or stromal collagen type IV were determined in a 900-pixel wide×235-pixel high rectangle (for either α-SMA or collagen type IV quantitation) with ImageJ in three sections for each cornea using the image panels showing only the color of interest. […]

As for `CCCCc1nc(Cl)c(CO)n1Cc1ccc(-c2ccccc2-c2nn[nH]n2)cc1` [losartan], the “mean pixels of opacity within the central 3.5 mm diameter area (mean±SEM)” value in assay [1] was found to be 77±3 pixels. For the same compound, the “posterior stromal collagen type IV production vs topical and oral vehicle” value with collagen type IV [2] (topical and oral losartan) is reported as “significantly decreased”. The “posterior stromal collagen type IV production vs topical and oral vehicle” value with collagen type IV [2] (topical losartan) was “significantly decreased”. In the assay on TGF beta-1, the “levels of TGF beta-1 in the posterior stroma or at the posterior stromal surface vs vehicle” value was “No effect”. Moreover, in assay [3], the “corneas (of four) that developed central corneal neovascularization” value was “two”. In the assay with collagen type IV [4], the “COL IV staining intensity in the posterior stroma vs vehicle” value is recorded as “significantly different” and the “mean intensity units of collagen type IV in the anterior stroma vs vehicle” value is listed as “significantly decreased”. In the assay with collagen type IV [5], the “collagen type IV detected in the underlying anterior stroma (IHC) compared with vehicle” value was “far smaller amounts”.
